# In US20240277705A1, “DOSAGE REGIMENS FOR ECUBECTEDIN” (PHARMA MAR S.A., priority 2021, published 2024):
# Test system: patients with advanced solid tumors
# Assay: Phase I dose-escalating study, safety and dose limiting toxicities
# Assay type: in vivo
# Conditions: for maximum tolerated dose: 3-hour i.v. infusion
# Text: Primary Study Objectives • Dose escalation phase: To identify the dose limiting toxicities (DLTs), and to determine the maximum tolerated dose (MTD) and the recommended dose (RD) of PM14 administered intravenously (i.v.) on two days (Day 1 and Day 8) or on Day 1 only, both every three weeks (q3wk) over three hours to patients with advanced solid tumors.
# First-in-human, open-label, dose-finding, phase I trial, using a classical 3+3 design followed by a continual reassessment method (CRM) (see Dose Escalation Schedule, below).
# Patients will be included in cohorts of a minimum of three or six patients to receive PM14 at successively increasing dose levels, starting at 0.25 mg/m2 for the Days 1 and 8 schedule. For the Day 1 schedule, the starting dose will be 4.5 mg/m^2.
# Open-label, dose-escalating, phase I trial of PM14 administered as a 3-hour infusion i.v. every 3 weeks (q3wk) in human patients (pts) with advanced solid tumors, adequate organ function and ECOG PS score of 0-1. Two schedules were explored: Schedule A (Day 1 [D1], Day 8 [D8]) and Schedule B (D1).
# Determination of MTD and RD: the MTD will be the lowest dose level explored during dose escalation in which one third or more of evaluable patients develop a DLT in Cycle 1. The CRM could be used to define the RD.
# Secondary Endpoints • Safety: patients will be evaluable for safety if they have received at least one partial infusion of PM14. AEs will be graded according to the NCI-CTCAE v.4. Additionally, treatment-related discontinuations and treatment compliance (dose reduction, skipped doses and/or treatment delays due to AEs), will be described. • Pharmacokinetics: PK analyses will be evaluated in plasma and urine by standard non-compartmental analysis (compartmental modeling may be performed if appropriate). Plasma samples for PM14 PK analysis will be obtained in Cycle 1 from all patients, and also in Cycle 2 from patients treated during Step D of the CRM. In addition, the urine produced during Day 1 of Cycle 1 and Cycle 2 will be collected from patients treated during Step D of the CRM. • Pharmacogenetics: the presence or absence of PGt polymorphisms in genes relevant for PM14 disposition (distribution, metabolism and excretion) from a single blood sample collected at any time during the trial (but preferably at the same time as the pre-treatment PK sample on Day 1 of Cycle 1) will be assessed to explain individual variability in main PK parameters. • Pharmacogenomics: this exploratory analysis will be performed in those patients who sign the Informed Consent Form (ICF) for the PGx study. mRNA or protein expression levels of factors involved in DNA repair mechanisms, or related to the mechanism of action of PM14, will be evaluated from available tumor tissue samples obtained at diagnosis or relapse and in cell-free ctDNA. Their mutational status might also be analyzed, if relevant. Their correlation with the clinical response and outcome after treatment will be assessed. • Efficacy: patients will be evaluable for efficacy if they receive at least one complete infusion of PM14 and have at least one clinical or radiological tumor assessment as per RECIST v.1.1 or serum markers, or if they are considered to have failed treatment. Treatment failure will be defined as clinical deterioration, death due to PD or treatment discontinuation due to any treatment-related toxicity before any appropriate tumor assessments have been performed. […]
# [1] = Schedule A D1,D8, 3.0 mg/m^2 (n: 9)
# [2] = Schedule A D1,D8, <3.0 mg/m^2 (n: 14)
# [3] = Schedule A D1,D8, >3.0 mg/m^2 (n: 5)
# [4] = Schedule B D1, 4.5 mg/m^2 (n: 6)
# [5] = Schedule B D1, 5.6 mg/m^2 (n: 3)
smiles,measurement,setting,value
"COc1c(C)cc2c(c1O)[C@@H]1[C@@H]3[C@@H]4SC[C@]5(N[C@H](CO)Cc6c5[nH]c5ccccc65)C(=O)OC[C@@H](c5c6c(c(C)c(OC(C)=O)c54)OCO6)N3[C@@H](O)[C@H](C2)N1C [PM14, ECUBECTEDIN]",DLTs at the RDs,"3.0 mg/n^2 D1,D8 (A) and 4.5 mg/n^2 D1 (B)",No DL-Ts
same,maximum tolerated dose,"Schedule A (D1, D8 q3wk)",4.5 mg/m^2
same,"ALT increase Gr 1-2, (%)",[1],(55.6%)
same,"ALT increase Gr 3, (%)",[1],(11.1%)
same,"AST increase Gr 1-2, (%)",[1],(77.8%)
same,"Anemia Gr 1-2, (%)",[1],(77.8%)
same,"Anemia Gr 3, (%)",[1],(11.1%)
same,"CPK increase Gr 1-2, (%)",[1],(22.2%)
same,"Diarrhoea Gr 1-2, (%)",[1],(11.1%)
same,"Nausea Gr 1-2, (%)",[1],(11.1%)
same,"Neutropenia Gr 1-2, (%)",[1],(11.1%)
same,"Neutropenia Gr 3, (%)",[1],(11.1%)
same,"Neutropenia Gr 4, (%)",[1],(11.1%)
same,"Vomiting Gr 1-2, (%)",[1],(11.1%)
same,"Vomiting Gr 3, (%)",[1],(11.1%)
same,"ALT increase Gr 1-2, (%)",[2],(35.7%)
same,"AST increase Gr 1-2, (%)",[2],(21.4%)
same,"Anemia Gr 1-2, (%)",[2],(85.7%)
same,"CPK increase Gr 1-2, (%)",[2],(42.9%)
same,"Constipation Gr 1-2, (%)",[2],(7.1%)
same,"Decreased appetite Gr 1-2, (%)",[2],(7.1%)
same,"Diarrhoea Gr 1-2, (%)",[2],(14.3%)
same,"Fatigue Gr 1-2, (%)",[2],(28.6%)
same,"Nausea Gr 1-2, (%)",[2],(42.9%)
same,"Neutropenia Gr 1-2, (%)",[2],(14.3%)
same,"Vomiting Gr 1-2, (%)",[2],(42.9%)
same,"ALT increase Gr 1-2, (%)",[3],(60.0%)
same,"ALT increase Gr 3, (%)",[3],(40.0%)
same,"AST increase Gr 1-2, (%)",[3],(100.0%)
same,"Anemia Gr 1-2, (%)",[3],(80.0%)
same,"Anemia Gr 3, (%)",[3],(20.0%)
same,"Constipation Gr 1-2, (%)",[3],(60.0%)
same,"Decreased appetite Gr 1-2, (%)",[3],(40.0%)
same,"Diarrhoea Gr 1-2, (%)",[3],(20.0%)
same,"Fatigue Gr 1-2, (%)",[3],(40.0%)
same,"Fatigue Gr 3, (%)",[3],(20.0%)
same,"Nausea Gr 1-2, (%)",[3],(80.0%)
same,"Neutropenia Gr 1-2, (%)",[3],(20.0%)
same,"Neutropenia Gr 4, (%)",[3],(40.0%)
same,"Vomiting Gr 1-2, (%)",[3],(60.0%)
same,recommended dose (RD),"Schedule A, on D1,D8",3.0 mg/n^2
same,maximum tolerated dose,Schedule B (D1 q3wk),5.6 mg/rn^2
same,"ALT increase Gr 1-2, (%)",[4],(66.7%)
same,"ALT increase Gr 3, (%)",[4],(33.3%)
same,"AST increase Gr 1-2, (%)",[4],(50.0%)
same,"AST increase Gr 4, (%)",[4],(16.1%)
same,"Anemia Gr 1-2, (%)",[4],(83.3%)
same,"CPK increase Gr 1-2, (%)",[4],(33.3%)
same,"Decreased appetite Gr 1-2, (%)",[4],(16.7%)
same,"Fatigue Gr 1-2, (%)",[4],(50.0%)
same,"Headache Gr 1-2, (%)",[4],(16.7%)
same,"Nausea Gr 1-2, (%)",[4],(50.0%)
same,"Neutropenia Gr 3, (%)",[4],(16.7%)
same,"Neutropenia Gr 4, (%)",[4],(16.7%)
same,"Vomiting Gr 1-2, (%)",[4],(16.7%)
same,"ALT increase Gr 1-2, (%)",[5],(66.7%)
same,"ALT increase Gr 4, (%)",[5],(33.3%)
same,"AST increase Gr 1-2, (%)",[5],(33.3%)
same,"AST increase Gr 4, (%)",[5],(33.3%)
same,"Anemia Gr 1-2, (%)",[5],(33.3%)
same,"Anemia Gr 3, (%)",[5],(66.7%)
same,"CPK increase Gr 1-2, (%)",[5],(66.7%)
same,"Fatigue Gr 1-2, (%)",[5],(33.3%)
same,"Febrile neutropenia Gr 4, (%)",[5],(33.3%)
same,"Neutropenia Gr 1-2, (%)",[5],(33.3%)
same,"Neutropenia Gr 3, (%)",[5],(33.3%)
same,"Neutropenia Gr 4, (%)",[5],(33.3%)
same,recommended dose (RD),"Schedule B, on D1",4.5 mg/n^2
same,tolerability at the RDs,patients with advanced solid tumors,well tolerated
